Literature values as cited in patent US11559637B2, “Inhalers and related methods” (Norton (Waterford) Limited, priority 2017, dated 2023).

FCC(F)(F)F [HFA134a, 1,1,1,2-tetrafluoroethane]
surface tension (as liquid at 25° C.): about 8 mN/m | vapor pressure (at 20° C.): 572 kpa
